The EC50 is the concentration at which the effect is half-maximal.

One assay relates to HT-1080 (ATCC, CCL-121) cells. Put plainly: HT-1080 cell viability assay with ferroptosis inducer RSL3 (Cell Titer-Glo). It is filed as cell-based. The conditions noted are these: Homo sapiens; HT-1080 cells treated with RSL3; 3-fold, 10-point dilution, 1.1 μM highest concentration; Table 2; read-out: EC50 (nM), ferroptosis inhibitory activity. The essentials:
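HT-1080 cells (6000 per well) were cultured overnight at 37 °C, then co-treated with RSL3 and compound in a 3-fold, 10-point series topping at 1.1 μM. Viability was read by CellTiter-Glo luminescence and normalized to untreated controls. EC50 came from a sigmoidal non-linear regression fit.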
(In general: ATP-based viability assays read luminescence as a measure of living cells.)
Regarding `CN1CCOc2cc(Nc3ccc(N4CCC(C(F)(F)F)CC4)cc3)ccc21` [Compound 114, 4-methyl-N-(4-(4-(trifluoromethyl)piperidin-1-yl)phenyl)-3,4-dihydro-2H-benzo[b][1,4]oxazin-7-amine], the concentration giving a half-maximal response (EC50) was in the range of 0.1 to 100 nM.
As to `CCCCCN(CC)c1ccc(Nc2ccc3c(c2)OCC(=O)N3C)cc1` [Compound 30, 7-((4-(ethyl(pentyl)amino)phenyl)amino)-4-methyl-2H-benzo[b][1,4]oxazin-3(4H)-one], the half-maximal effective concentration (EC50) lay within 0.1 to 100 nM.
Same read-out and setting: in the case of `Cc1cc(Nc2ccc3c(c2)OCC(=O)N3C)cnc1N1CCC(C(F)(F)F)CC1` [Compound 142, 4-methyl-7-((5-methyl-6-(4-(trifluoromethyl)piperidin-1-yl)pyridin-3-yl)amino)-2H-benzo[b][1,4]oxazin-3(4H)-one] it was 0.1 to 100 nM; in that of `CCN1Cc2ccc(Nc3cnc(N4CCCCC4)c(F)c3)cc2C1` [Compound 195, 2-ethyl-N-(5-fluoro-6-(piperidin-1-yl)pyridin-3-yl)isoindolin-5-amine], 0.1 to 100 nM; in that of `Cn1c(=O)n(C)c2cc(Nc3ccc(CN4CCCC4)cc3)ccc21` [Compound 295, 1,3-dimethyl-5-((4-(pyrrolidin-1-ylmethyl)phenyl)amino)-1,3-dihydro-2H-benzo[d]imidazol-2-one], 1000 to 10000 nM.
Consider `CCn1c2cc(Nc3ccc(N4CCC(C(F)(F)F)CC4)cc3)ccc2c(=O)n1C` [Compound 218, 1-ethyl-2-methyl-6-((4-(4-(trifluoromethyl)piperidin-1-yl)phenyl)amino)-1,2-dihydro-3H-indazol-3-one], for which the EC50 fell in the range of 0.1 to 100 nM.
Regarding `FC(F)(F)C1CCN(c2ccc(Nc3ccc4cnoc4c3)cc2)CC1` [Compound 358, N-(4-(4-(trifluoromethyl)piperidin-1-yl)phenyl)benzo[d]isoxazol-6-amine], the EC50 lay in the range of 0.1 to 100 nM.
On to `Cn1c(=O)oc2cc(Nc3ccc(N4CCC(C(F)(F)F)CC4)cc3)ccc21` [Compound 256], for which the concentration for a half-maximal effect (EC50) was in the range of 0.1 to 100 nM.
Turning to `CCOC(=O)c1ccc(Nc2ccc3c(c2)n(C)c(=O)n3C)cc1` [Compound 306, ethyl 4-((1,3-dimethyl-2-oxo-2,3-dihydro-1H-benzo[d]imidazol-5-yl)amino)benzoate], the concentration for a half-maximal effect (EC50) was in the range of 100 to 1000 nM.
Same read-out and setting: then `CN1CCN(CC(=O)N2CCc3cc(Nc4ccc(N5CCCCC5)cc4)ccc3C2)CC1` [Compound 103, 2-(4-methylpiperazin-1-yl)-1-(6-((4-(piperidin-1-yl)phenyl)amino)-3,4-dihydroisoquinolin-2(1H)-yl)ethan-1-one], with 100 to 1000 nM; and `Cc1cc(Nc2ccc3c(c2)OCC(=O)N3C)ccc1N1CC(C)OC(C)C1` (stereo not shown) [Compound 52, 7-((4-(2,6-dimethylmorpholino)-3-methylphenyl)amino)-4-methyl-2H-benzo[b][1,4]oxazin-3(4H)-one], with 0.1 to 100 nM.
Still for that read-out and setting: in the case of `CC1CN(c2ccc(Nc3ccc4c(c3)ncn4C)cc2)CC(C)O1` (stereo not shown) [Compound 434, N-(4-(2,6-dimethylmorpholino)phenyl)-1-methyl-1H-benzo[d]imidazol-5-amine] it was 0.1 to 100 nM; in that of `Cn1c(=O)n(C)c2cc(Nc3ccc(N4CCCC4)cc3)ccc21` [Compound 271, 1,3-dimethyl-5-((4-(pyrrolidin-1-yl)phenyl)amino)-1,3-dihydro-2H-benzo[d]imidazol-2-one], 0.1 to 100 nM; in that of `CCN(CC)c1ccc(Nc2ccc3c(c2)n(C)c(=O)n3C)cc1` [Compound 268, 5-((4-(diethylamino)phenyl)amino)-1,3-dimethyl-1,3-dihydro-2H-benzo[d]imidazol-2-one], 0.1 to 100 nM.
On to `CCN1Cc2cc(Nc3ccc(N4CCC(C(F)(F)F)CC4)cc3)ccc2C1=O` [Compound 180, 2-ethyl-5-((4-(4-(trifluoromethyl)piperidin-1-yl)phenyl)amino) isoindolin-1-one], for which the concentration for a half-maximal effect (EC50) lay in the range of 0.1 to 100 nM.
Turning to `CN1C(=O)COc2cc(Nc3ccc(N4CCC(CF)CC4)cc3)ccc21` [Compound 23, 7-((4-(4-(fluoromethyl)piperidin-1-yl)phenyl)amino)-4-methyl-2H-benz o[b][1,4]oxazin-3(4H)-one], the EC50 was in the range of 0.1 to 100 nM.
Still for that read-out and setting: in the case of `COC1(C(F)(F)F)CCN(c2c(F)cc(Nc3ccc4c(c3)OCC(=O)N4C)cc2F)CC1` [Compound 161] it was 0.1 to 100 nM.
Regarding `Cn1c(=O)oc2cc(Nc3ccc4c(c3)n(C)c(=O)n4C)ccc21` [Compound 344, 6-((1,3-dimethyl-2-oxo-2,3-dihydro-1H-benzo[d]imidazol-5-yl)amino)-3-methylbenzo[d]oxazol-2(3H)-one], the half-maximal effective concentration (EC50) fell in the range of 0.1 to 100 nM.
Still for that read-out and setting: in the case of `CCN1C(=O)COc2cc(Nc3ccc(N4CCC(C(F)(F)F)CC4)nc3)ccc21` [Compound 24, 4-ethyl-7-((6-(4-(trifluoromethyl)piperidin-1-yl)pyridin-3-yl)amino)-2H-benzo[b][1,4]oxazin-3(4H)-one] it was 0.1 to 100 nM; in that of `CN1Cc2cc(Nc3ccc4nccn4c3)ccc2C1=O` [Compound 233, 5-(imidazo[1,2-a]pyridin-6-ylamino)-2-methylisoindolin-1-one], 100 to 1000 nM; in that of `CN(C)CCCN1Cc2cc(Nc3ccc(N4CCC(C(F)(F)F)CC4)cc3)ccc2C1=O` [Compound 200, 2-(3-(dimethylamino)propyl)-5-((4-(4-(trifluoromethyl)piperidin-1-yl)phenyl)amino)isoindolin-1-one], 0.1 to 100 nM.
For the compound `COc1cc(Nc2ccc3c(c2)n(C)c(=O)n3C)ccc1N1CCC(C(F)(F)F)CC1` [Compound 269, 5-((3-methoxy-4-(4-(trifluoromethyl)piperidin-1-yl)phenyl)amino)-1,3-dimethyl-1,3-dihydro-2H-benzo[d]imidazol-2-one], the EC50 was 0.1 to 100 nM.
The same measure, in the same setting: then `CC1CN(c2ccc(Nc3ccc4c(c3)OCC(=O)N4CCN(C)C)cc2)CC(C)O1` (stereo not shown) [Compound 80, 4-(2-(dimethylamino)ethyl)-7-((4-(2,6-dimethylmorpholino)phenyl)amino)-2H-benzo[b][1,4]oxazin-3(4H)-one], with 0.1 to 100 nM.

Still in this assay, the particulars now being: Homo sapiens; HT-1080 cells treated with RSL3; 3-fold, 10-point dilution, 1.1 μM highest concentration; Table 3; read-out: EC50 (nM), ferroptosis inhibitory activity.
Take `Cc1cc(N2CCC(F)(F)C2)ccc1Nc1ccc2c(c1)OCCC(=O)N2` [Compound 622, 8-((4-(3,3-difluoropyrrolidin-1-yl)-2-methylphenyl)amino)-2,3-dihydrobenzo[b][1,4]oxazepin-4(5H)-one]: the EC50 lay within 0.1 to 100 nM.
Same read-out and setting: in the case of `Cc1cc(N2CC(C)(F)C2)ccc1Nc1ccc2c(c1)OCCC(=O)N2` [Compound 623] it was 0.1 to 100 nM; in that of `O=C1CSc2cc(Nc3ccc(N4CCC(C(F)(F)F)CC4)cc3)ccc2N1` [Compound 582, 7-((4-(4-(trifluoromethyl)piperidin-1-yl)phenyl)amino)-2H-benzo[b][1,4]thiazin-3(4H)-one], 0.1 to 100 nM; in that of `Cc1cc(N2CC(F)(F)C2)ccc1Nc1ccc2c(c1)OCC(N)C(=O)N2` (stereo not shown) [Compound 627, 3-amino-8-((4-(3,3-difluoroazetidin-1-yl)-2-methylphenyl)amino)-2,3-dihydrobenzo[b][1,4]oxazepin-4(5H)-one], 0.1 to 100 nM.
Still for that read-out and setting: then `Cc1cc(N2CC(C)OC(C(F)(F)F)C2)ccc1Nc1ccc2c(c1)OCC(=O)N2` (stereo not shown) [Compound 562, 7-((2-methyl-4-(2-methyl-6-(trifluoromethyl)morpholino)phenyl)amino)-2H-benzo[b][1,4]oxazin-3(4H)-one], with 0.1 to 100 nM; and `Cc1cc(N2CC(F)C2)ccc1Nc1ccc2c(c1)OC[C@H](N)C(=O)N2` [Compound 611, (S)-3-amino-8-((4-(3-fluoroazetidin-1-yl)-2-methylphenyl)amino)-2,3-dihydrobenzo[b][1,4]oxazepin-4(5H)-one], with 0.1 to 100 nM.
Same read-out and setting: then `O=C1COc2cc(Nc3ccc(N4CCC(C(F)(F)F)CC4)cc3F)ccc2N1` [Compound 466, 7-((2-fluoro-4-(4-(trifluoromethyl)piperidin-1-yl)phenyl)amino)-2H-benzo[b][1,4]oxazin-3(4H)-one], with 0.1 to 100 nM; and `CC1CN(c2ccc(Nc3ccc4c(c3)N(C)C(=O)C4(C)C)cc2)CC(C)O1` (stereo not shown) [Compound 449, 6-((4-(2,6-dimethylmorpholino)phenyl)amino)-1,3,3-trimethylindolin-2-one], with 0.1 to 100 nM.
As to `Cc1cc(N2CCC(C(F)(F)F)CC2)ccc1Nc1ccc2c(c1)CN(C(N)=O)C2` [Compound 545, 5-((2-methyl-4-(4-(trifluoromethyl)piperidin-1-yl)phenyl)amino) isoindoline-2-carboxamide], the EC50 was in the range of 0.1 to 100 nM.
The same measure, in the same setting: in the case of `Cc1cc(N2CCC(C(F)(F)F)CC2)ccc1Nc1ccc2nccn2c1` [Compound 624, N-(2-methyl-4-(4-(trifluoromethyl)piperidin-1-yl)phenyl) imidazo[1,2-a]pyridin-6-amine] it was 0.1 to 100 nM; in that of `O=C1CCOc2cc(Nc3ccc(N4CCC(O)(C(F)(F)F)CC4)cc3)ccc2N1` [Compound 556, 8-((4-(4-hydroxy-4-(trifluoromethyl)piperidin-1-yl)phenyl)amino)-2,3-dihydrobenzo[b][1,4]oxazepin-4(5H)-one], 0.1 to 100 nM; in that of `Cc1cc(N2CCC2)ccc1Nc1ccc2c(c1)OCCC(=O)N2` [Compound 586, 8-((4-(azetidin-1-yl)-2-methylphenyl)amino)-2,3-dihydrobenzo[b][1,4]oxazepin-4(5H)-one], 0.1 to 100 nM.
Take `O=C1COc2cc(Nc3ccc(N4C5CCC4CC5)cc3)ccc2N1` [Compound 549, 7-((4-(7-azabicyclo[2.2.1]heptan-7-yl)phenyl)amino)-2H-benzo[b][1,4]oxazin-3(4H)-one]: the concentration giving a half-maximal response (EC50) is 0.1 to 100 nM.
For `Cc1cc(N2CC(O)(C(F)(F)F)C2)ccc1Nc1ccc2c(c1)OCCC(=O)N2` [Compound 649, 8-[4-[3-hydroxy-3-(trifluoromethyl)azetidin-1-yl]-2-methyl-anilino]-3,5-dihydro-2H-1,5-benzoxazepin-4-one], the EC50 lay within 0.1 to 100 nM.

Values taken from patent publication US20240327393A1 (SIRONAX LTD., priority 2021, published 2024).
